On to `Cc1c(Cl)c(OCC(=O)O)c(Cc2ccc3c(Cl)cccc3c2)c(O)c1C=O`, for which the melting point is 194 to 196 °C. For `COc1ccccc1C1=CC(C)(C)Oc2ccc(C#N)cc21`, the melting point was in the range of 109 to 111 °C. In the case of `OC(c1ccccc1)(c1ccncc1)c1ccc(F)cc1` (centres undefined), the melting point fell in the range of 189 to 192 °C. The result for `O=[N+]([O-])C(Br)(Br)CCO` reads 22 to 25 °C; that for `CCCCOC(=O)C1CC2CC(CP(=O)(O)O)CCC2CN1` (centres undefined), 161 to 169 °C.

For `Cc1cc2cc(CN3CCCCC3)cnc2cc1NC(=O)c1ccc(-c2ccc(F)cc2)cc1`, the melting point lay in the range of 185 to 188 °C. In the case of `c1ccc2[nH]c(Cn3ccnc3)nc2c1` it was 198 to 200 °C; in that of `CC(C)(C)OC(=O)N1CCN(c2ccc(OCC3(C)CCn4cc([N+](=O)[O-])nc4O3)cc2)CC1` (centres undefined), 208 to 209 °C. `CCC(=O)NCCC1c2cc(OC)ccc2-c2ccc(OC)cc21` yielded a melting point of 139 to 140 °C. Take `CCS(=O)(=O)Nc1cc(-n2nnn(CCCF)c2=O)c(F)cc1Cl`: the melting point was 84 to 85 °C. For `Cn1c2c(ccc1=O)C(NCCc1ccc(Cl)cc1)CCC2` (centres undefined), the melting point lay within 110 to 112 °C.

As for `CC1(CNC(=O)CC2CN=C(c3cc4cc(Oc5ccc(S(C)(=O)=O)nc5)cc(OC5CCOCC5)c4[nH]3)S2)COC1` (centres undefined), the melting point lay in the range of 189 to 190 °C. The result for `CS(=O)Cc1cc(=O)c2ccccc2o1` (centres undefined) reads 142 to 146 °C. `Fc1ccc(F)c(COc2cccnc2NC(=S)Nc2ccc(Cl)cc2)c1F`: the melting point was 174 to 176 °C.

On to `Cc1ccc(-c2nnc(N3CCCC(O)C3)nc2-c2ccc(C)cc2)cc1` (centres undefined), for which the melting point lay in the range of 122 to 125 °C. `CC(C)C(=O)Nc1ccc(OCc2ccccc2)c(Br)c1N(C)C`: the melting point was in the range of 197 to 198 °C. Take `COc1ccc(C2(C)C(=O)Nc3cc(Cl)cc(Cl)c3C2=O)cc1` (centres undefined): the melting point lay in the range of 210 to 212 °C.

Consider `Cc1cc(C)n(-c2nc(-c3ccc(Cl)cc3)c(CCCOc3ccccc3C)o2)n1`, for which the melting point lay in the range of 103 to 104 °C.

Compound `Brc1cn2ccsc2n1` came in with a melting point of 96 to 98 °C. In the case of `CCCCNS(=O)(=O)CC(O)C(O)C(CC1CCCCC1)NC(=O)c1ccc(O)nc1` (centres undefined) it was 247 to 252 °C. `OCCCCc1ccc(OCc2coc(/C=C/c3ccccc3)n2)cc1` gave a melting point of 90 to 91 °C.

`N#CCNCCNCC#N`: the melting point is 41 to 42 °C.

`COc1cc(OC)c(C2=NC(NC(=O)Nc3ccccc3C)C(=O)N(C)c3ccccc32)c(OC)c1` (centres undefined): the melting point was determined as 50 °C.

Turning to `O=C(O)c1c(O)c(-c2ccccc2)nc2ccccc12`, the melting point came to 206 °C. In the case of `NS(=O)(=O)c1ccc(-n2nc(C(F)(F)F)cc2-c2ccc(-c3cscn3)cc2)cc1` it was 188 to 190 °C. The result for `COc1cc(OC)c2c(c1OC)CCC(C(=O)Cc1cccc(F)c1)C2C#N` (centres undefined) reads 58 to 62 °C; that for `O=S(=O)(Cl)c1cncc(Br)c1`, 64 °C; that for `Cc1csc(N=CN(C)C)n1`, 54 to 56 °C. In the case of `O=S(=O)(Nc1ncnc(Cl)c1-c1ccc(Cl)cc1)c1ccc(C(F)(F)F)cc1` it was 275 °C; in that of `CCOC(=O)c1cn(NCC=O)c2c(OCc3ccccc3)c(F)c(F)cc2c1=O`, 180 to 181 °C; in that of `CC(=O)OC1CSC(Oc2cnccc2-c2ccc(C(F)(F)F)cc2)C(OC(C)=O)C1OC(C)=O` (centres undefined), 168 °C. The compound `O=c1ccc2cc(-c3cccnc3)ccc2[nH]1` displayed a melting point of 217 to 218 °C. In the case of `Fc1ccc2[nH]cc(C3=CCN(CC4COc5ccc6c(c5O4)CCCO6)CC3)c2c1` (centres undefined) it was 205 to 206 °C.

`N#Cc1c(N2CCN(C(=O)c3cccs3)CC2)c2cccnc2n(C2CCCCC2)c1=O` yielded a melting point of 192 °C. With `CCOC(=O)C(=NOC)C1=CSCCO1`, the melting point is 64 to 66 °C.

`O=C(N[C@@H](CO)C(=O)N1CC(C(=O)O)C1)OCc1ccccc1`: the melting point lay in the range of 138 to 143 °C. In the case of `Fc1ccc(-c2nn3cc(C(F)(F)F)ccc3c2-c2ccnc(NC3CCCC3)n2)cc1` it was 155 to 156 °C.

Compound `N#Cc1cnn2c(C(F)(F)F)cc(-c3ccccc3Cl)nc12` had a melting point of 169 °C. In turn, `Cc1c(C(=O)C(N)=O)c2c(OCC(=O)O)cccc2n1Cc1ccccc1` gave a melting point of 218 to 220 °C. The result for `O=c1[nH]cc(C(c2ccccc2)c2ccccc2)cc1C(c1ccccc1)c1ccccc1` reads 240 °C; that for `N#CC1CN1C(=O)c1ccc2c(c1)OCO2` (centres undefined), 95 to 97 °C. In the case of `Cc1cc2ncc(NC(=O)C=Cc3ccc(O)c(O)c3)c(-c3ccccc3Cl)c2cc1C` it was 272 to 274 °C; in that of `CC(C)N(C(=O)Cl)c1ccccc1`, 89 to 90 °C; in that of `O=C(O)c1cc2c3ccccc3n(Cc3ccccc3)c2s1`, 194 to 195 °C. The result for `CC(C)(C)c1ccc2occ(N)c(=S)c2c1` reads 168 °C.

In turn, `CCCCCCCCC1C=CC(/C=C/c2ccc(C(=O)O)o2)=C2N=C3CCCCC3=C21` (centres undefined) gave a melting point of 128 to 131 °C.

`CCN(C(=O)Cn1c(=O)n(C)c2nc(-c3ccccc3)ncc21)c1ccc(O)cc1` showed a melting point of 254 to 256 °C. In the case of `CCC(CC)c1ccc(Cl)c2nc(Nc3c(C)noc3C)n(CCCCO)c12` it was 150 to 155 °C; in that of `O=C(Nc1ccc(N2CCOCC2)c(C(F)(F)F)c1)c1ccc(F)c(OCc2cncc3ccccc23)c1`, 175 to 180 °C.

The compound `O=C(O)C1=c2ccccc2=CC=C2CC=CC=C21` showed a melting point of 129 °C.

Compound `CC(=O)c1cnc2c(n1)CCCC2` had a melting point of 42 to 45 °C. The result for `COc1cccc(NC(=NC#N)NC(NC(=O)c2ccc(Cl)cc2)C(C)(C)C)c1` (centres undefined) reads 173 to 175 °C. In turn, `c1ccc(-c2c[nH]nc2-c2ccccc2)cc1` displayed a melting point of 150 to 152 °C. The result for `COC(=O)CC1c2cc(OC)ccc2N(c2nc3ccccc3nc2Cl)C1C` (centres undefined) reads 155 to 157 °C. Turning to `COc1ccc(-c2nc(-c3ccc(Cl)c(Cl)c3)ncc2C(=O)N2CCOCC2)cc1OC`, the melting point was 181 °C. In the case of `COc1cc(-c2nc3ccc(OCC(C)N(C)C)cc3n2Cc2ccccc2Br)cc(OC)c1OC` (centres undefined) it was 152 °C; in that of `Cc1cccc(-c2cc(Cl)nc3ccc(C(=O)c4ccc(Cl)cc4)cc23)c1`, 199 °C; in that of `CC(C)c1cccc(C(C)C)c1NC(=O)C1c2ccccc2COc2ccc([N+](=O)[O-])cc21` (centres undefined), 186 to 188 °C. As to `c1nc(NCCN2CCOCC2)c2sc3nc(N4CCOCC4)c4c(c3c2n1)CCOC4`, the melting point was in the range of 184 to 185 °C. The result for `O=C(N1CCN(c2ccccc2)CC1)N1CCc2ccccc2CO1` reads 123 to 125 °C; that for `COC(=O)[C@H]1NC(=O)[C@H]1NC(=O)Cc1ccccc1` (relative stereo), 176 to 180 °C; that for `N#Cc1ccc(-c2cc(-c3cc(Br)ccc3Cl)no2)cc1`, 198 to 199 °C. The result for `CN1CCC(N(Cc2cccn2C)S(=O)(=O)c2ccc(Nc3nccc(Nc4ccc(F)cc4)n3)cc2)CC1` reads 129 °C; that for `COc1ccc(-c2cnc(C#N)nc2)cc1OC1CCCC1`, 121 to 123 °C. As for `N#CCCNC(=O)c1cccc(-c2cccc3nn(Cc4ccc(F)c(Cl)c4)cc23)c1`, the melting point lay in the range of 165 to 166 °C. The result for `O[C@H]1CCCN[C@H]1c1ccccc1` (relative stereo) reads 93 to 95 °C; that for `CN(C)C(=O)CC1CN=C(c2cc3cccc(N(C)S(=O)(=O)c4cccs4)c3[nH]2)S1` (centres undefined), 153 to 154 °C. The result for `COC(=O)c1cccc(Oc2nn(Cc3ccccc3)c3ccccc23)n1` reads 92 to 94 °C; that for `Nc1ccnc(SCCCCN2C(=O)c3ccccc3C2=O)n1`, 164 to 167 °C. The result for `COc1ccc(S(=O)(=O)C2(CCCCCCCCCC#Cc3ccc(Cl)cc3)SC(=O)NC2=O)cc1` (centres undefined) reads 114 to 121 °C; that for `CNC(=O)c1ccncc1I`, 132 to 133 °C. The compound `CCN1C(=O)C(C(=O)Nc2ccc(F)cc2)c2cc3c(cc21)CC(C)O3` (centres undefined) displayed a melting point of 196 to 197 °C.

In the case of `CCCn1c(=O)c2c(N3CCN(C)CC3)cc(Cl)cc2n(Cc2ccccc2)c1=O`, the melting point was 120 to 121 °C. `OC(CBr)C(O)C(O)C(O)CBr` (centres undefined) came in with a melting point of 183 to 185 °C. In the case of `O=C(Nc1nncs1)c1sc(Nc2ccccc2)c2c1CCc1cnoc1-2` it was 227 to 229 °C; in that of `COC(=O)CCc1cc2c(s1)-n1c(C)nnc1C(C)N=C2c1ccccc1Cl` (centres undefined), 131 to 132 °C; in that of `O=S(=O)(CC(Br)(CBr)c1cccc(Cl)n1)C1CC1` (centres undefined), 75 °C.

`CCOC(=O)c1ccc(C#Cc2ccc3c(c2)C(C)(C)CCC3(C)C)cc1` showed a melting point of 137 to 138 °C.

On to `Cc1cccc(CN2NCC(=O)NC2=O)c1`, for which the melting point was found to be 158 °C. The compound `CCN(CC)CCN(CC)C(=O)c1ccc(Nc2ccnc3c(C(F)(F)F)cccc23)cc1` yielded a melting point of 151 to 152 °C. The result for `COc1ccccc1-n1c(=O)[nH]c2c(C(N)=O)nc(Nc3cccc(O)c3)nc21` reads 190 to 191 °C; that for `CC(C(=O)CCc1ccc(Cl)cc1)n1cncn1` (centres undefined), 77 to 78 °C.

For the compound `COc1ccc2ccc(N3C(=O)c4ccccc4C3OC(=O)CCC(C)C)nc2n1` (centres undefined), the melting point is 133 °C. In turn, `O=C1NC(=O)C(=Cc2cc(O)c(O)c([N+](=O)[O-])c2)N1` had a melting point of over 350 °C. In the case of `CN(c1cccc2cc(-c3nc(CCC(N)=O)cs3)[nH]c12)S(=O)(=O)c1cccs1` it was 200 to 201 °C. In the case of `CC(=O)SCC(C)C(=O)N(CC(=O)O)C1CC1` (centres undefined) it was 86 to 88 °C; in that of `CCOC(=O)/C=C/c1ccc(OCCC2OCCO2)cc1Oc1ncc(C(F)(F)F)cc1Cl`, 102 to 103 °C; in that of `CCCCCCCNC(=O)Nc1ccccc1C(=O)NCCC(c1ccccc1)c1ccccc1`, 118 °C. `C=CCCCCCCCCOc1ccc(O)cc1`: the melting point was 54 to 55 °C.

The values above are taken from a melting point compilation (Tetko et al.; mined from patent text by program, amines drawn as free bases though some values may be those of a salt).
